Data: patent US4906565A, “Method for the selective detection of microbial nucleotides” (Minnesota Mining and Manufacturing Company, priority 1986, dated 1990)
Blank lines part the entries; values can stand above or below the compound they belong to.

Tests used:
Type in all cases: biochemical
firefly luciferase [1] = molecular target: T1, firefly luciferase (Photinus pyralis, UniProt P08659); assay: Effect of inhibitor on the bioluminescent assay of ATP
T1 construct: purchased Lumac/3M Lumit PM

firefly luciferase [2] = molecular target: T1, firefly luciferase; assay: as above; remark: listed apart in the source
Procedure: Assay: from each sample triplicate 100 μl aliquots were taken. In those aliquots ATP was measured as described.
Assay: from each sample triplicate 100 μl aliquots were taken. ATP in those aliquots was measured as described.
Assay: From each sample triplicate 100 μl aliquots were taken and ATP was measured as described.
(§1) Protocol: Eight samples were prepared using materials described above and previously, as shown in TABLE 7-1 and incubated for various periods of time (i.e., 0, 5, 10 and […]) before aliquots were taken and assayed as described.
(§2) Protocol: Increasing concentrations of hexokinase, with and without PCMPSA were prepared according to TABLE 8-1 using materials described above and previously.

acetate kinase = molecular target: T2, acetate kinase (Escherichia coli, UniProt P0A6A3); assay: Inhibition of acetate kinase by PCMPSA; settings: PCMPSA 0.5 mM
T2 construct: purchased Boehringer Mannheim
T2 sequence (P0A6A3 1-400): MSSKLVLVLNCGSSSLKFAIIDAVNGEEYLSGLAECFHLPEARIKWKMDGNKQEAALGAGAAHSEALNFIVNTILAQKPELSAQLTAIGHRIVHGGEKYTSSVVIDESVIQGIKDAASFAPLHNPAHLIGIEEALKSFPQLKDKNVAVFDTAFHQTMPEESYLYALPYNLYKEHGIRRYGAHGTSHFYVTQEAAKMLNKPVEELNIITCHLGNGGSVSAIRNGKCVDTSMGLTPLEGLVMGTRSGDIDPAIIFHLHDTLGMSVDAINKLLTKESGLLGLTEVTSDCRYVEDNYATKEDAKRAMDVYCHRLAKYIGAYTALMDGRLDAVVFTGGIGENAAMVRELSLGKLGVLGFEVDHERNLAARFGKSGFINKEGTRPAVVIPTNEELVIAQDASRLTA
Procedure: Acetate kinase was added to initiate enzyme activity. […] ATP in those aliquots was assayed as described.

glycerokinase = assay: Inhibition of glycerokinase by PCMPSA in milk / orange juice samples; settings: PCMPSA 0.5 mM; for % Control: control = same without glycerol; for RLU: milk/FRA, ATP added in SRA, 15 seconds
Procedure: Protocol: Samples were prepared containing: 1000 μl milk (local distributor, half-cream, sterilized); 800 μl FRA, 200 μl of a commercially available first releasing agent which is prepared in buffer for use with samples such as fruit juices (F-NRS, Lumac/3M); and 2.45 mM MgSO4. Glycerol, if present, was at a final concentration of 1.47 mM. ATP (10 mg/ml) was added in SRA to begin each assay, and PCMPSA if present, was also in that SRA aliquot in an amount sufficient to yield a final concentration of 0.5 mM.
(§3) To begin the assay, 100 μl of SRA/ATP ±PCMPSA was added to 50 μl of the appropriate sample. After 15 seconds (the period normally allowed for microbial nucleotide extraction using SRA) 100 μl Luciferase-luciferin solution was added and ATP was measured as described earlier.
(§4) Protocol: Samples with orange juice were prepared with 500 μl orange juice (Riedel, Netherlands, no preservatives, pasteurized), 500 μl buffered FRA, 3 mM glycerol, and with or without 0.5 mM PCMPSA. These were incubated over 0, 5, 10 and 20 minutes at four different glycerokinase concentrations.
(§5) Samples with milk were prepared similarly, but using 500 μl raw milk (fresh, local farmer) and 500 μl FRA in place of buffered FRA.

hexokinase = assay: Inhibition of hexokinase by PCMPSA, bioluminescent ATP assay; settings: PCMPSA 1.0 mM
Procedure: as §1, §2

[3] = ATP inactivation by glycerokinase or apyrase in milk / orange juice samples; settings: apyrase 0.096 U/mL; raw milk:FRA 500:500 μl
Procedure: Protocol: Four samples were prepared as shown in TABLE 11-1 using materials described above and earlier, and aliquots taken at 0, 2.5, 5, 10 and 20 minutes. […]
as §3, §4, §5

[4] = PCMPSA 1.0 mM alone, no hexokinase, buffer
[5] = PCMPSA 1.0 mM alone, no hexokinase, in SRA
[6] = acetate kinase 1.7 U/ml, magnesium acetate 3 mM, FRA
[7] = glycerokinase 0.42 U/ml, glycerol 1.47 mM
[8] = glycerokinase 1.04 U/ml, glycerol 1.47 mM
[9] = glycerokinase 2.06 U/ml, glycerol 1.47 mM
[10] = orange juice, glycerokinase 0.85 U/ml
[11] = orange juice, glycerokinase 2.12 U/ml
[12] = orange juice, glycerokinase 4.25 U/ml
[13] = raw milk, glycerokinase 0.85 U/ml
[14] = raw milk, glycerokinase 2.12 U/ml
[15] = raw milk, glycerokinase 4.25 U/ml

T1 sequence (P08659 whole entry): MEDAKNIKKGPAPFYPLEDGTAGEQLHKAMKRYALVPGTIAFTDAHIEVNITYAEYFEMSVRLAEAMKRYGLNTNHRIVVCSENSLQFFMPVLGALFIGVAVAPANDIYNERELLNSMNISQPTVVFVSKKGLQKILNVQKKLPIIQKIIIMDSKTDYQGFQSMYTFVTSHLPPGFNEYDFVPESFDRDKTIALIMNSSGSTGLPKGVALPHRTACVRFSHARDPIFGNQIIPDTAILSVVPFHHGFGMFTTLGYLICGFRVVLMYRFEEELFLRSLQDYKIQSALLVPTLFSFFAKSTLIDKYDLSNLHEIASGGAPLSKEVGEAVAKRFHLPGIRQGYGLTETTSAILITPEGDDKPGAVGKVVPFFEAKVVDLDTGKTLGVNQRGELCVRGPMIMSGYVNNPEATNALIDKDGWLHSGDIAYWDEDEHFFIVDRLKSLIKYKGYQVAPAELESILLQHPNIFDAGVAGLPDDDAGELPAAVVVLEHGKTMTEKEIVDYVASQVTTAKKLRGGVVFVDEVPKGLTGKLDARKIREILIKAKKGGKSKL

Compound: O=S(=O)(O)c1cc[c]([Hg][Cl])cc1 [PCMPSA, p-chloromercuriphenylsulfonic acid]
RLU 0 min. (firefly luciferase [1]; [4]): 29494 RLU
RLU 10 min. (firefly luciferase [1]; [5]): 25284 RLU
interference with the bioluminescent assay of ATP (conclusion in words) (firefly luciferase [1]; PCMPSA alone, in SRA): only very slight interference, if at all
RLU 10 min. (firefly luciferase [2]; [4]): 29569 RLU
RLU 15 min. (firefly luciferase [2]; [4]): 29742 RLU
RLU 0 min. (firefly luciferase [2]; [5]): 26457 RLU
interference with the bioluminescent assay (conclusion in words) (firefly luciferase [2]; PCMPSA alone, sample 5, buffer): does not substantially interfere
inhibition of acetate kinase (conclusion in words) (acetate kinase): fairly effective
RLU 0 min. (acetate kinase; [6]): 4878 RLU
RLU 5 min. (acetate kinase; [6]): 2911 RLU
RLU 10 min. (acetate kinase; [6]): 2263 RLU
RLU 15 min. (acetate kinase; [6]): 2362 RLU
% Control (glycerokinase; [7]): 91%
RLU (glycerokinase; [7]): 26407 RLU
RLU (glycerokinase; glycerokinase 0.42 U/ml, no glycerol (control)): 28957 RLU
% Control (glycerokinase; [8]): 78%
RLU (glycerokinase; [8]): 17213 RLU
RLU (glycerokinase; glycerokinase 1.04 U/ml, no glycerol (control)): 21901 RLU
% Control (glycerokinase; [9]): 58%
RLU (glycerokinase; [9]): 6404 RLU
RLU (glycerokinase; glycerokinase 2.06 U/ml, no glycerol (control)): 15129 RLU
inhibition of glycerokinase (conclusion in words) (glycerokinase; orange juice and milk, glycerokinase up to 4.25 U/ml): sufficient to inhibit even the highest concentrations of enzyme used
RLU after 0 min (glycerokinase; [10]): 142369 RLU
RLU after 5 min (glycerokinase; [10]): 145464 RLU
RLU after 10 min (glycerokinase; [10]): 150927 RLU
RLU after 20 min (glycerokinase; [10]): 155082 RLU
RLU after 0 min (glycerokinase; [11]): 152487 RLU
RLU after 5 min (glycerokinase; [11]): 143354 RLU
RLU after 10 min (glycerokinase; [11]): 132269 RLU
RLU after 20 min (glycerokinase; [11]): 151899 RLU
RLU after 0 min (glycerokinase; [12]): 116232 RLU
RLU after 5 min (glycerokinase; [12]): 131999 RLU
RLU after 10 min (glycerokinase; [12]): 123137 RLU
RLU after 20 min (glycerokinase; [12]): 125784 RLU
RLU after 0 min (glycerokinase; [13]): 1382 RLU
RLU after 5 min (glycerokinase; [13]): 1494 RLU
RLU after 10 min (glycerokinase; [13]): 1348 RLU
RLU after 20 min (glycerokinase; [13]): 1280 RLU
RLU after 0 min (glycerokinase; [14]): 829 RLU
RLU after 5 min (glycerokinase; [14]): 1340 RLU
RLU after 10 min (glycerokinase; [14]): 1342 RLU
RLU after 20 min (glycerokinase; [14]): 1233 RLU
RLU after 0 min (glycerokinase; [15]): 1173 RLU
RLU after 5 min (glycerokinase; [15]): 1314 RLU
RLU after 10 min (glycerokinase; [15]): 1374 RLU
RLU after 20 min (glycerokinase; [15]): 1028 RLU
inhibition of hexokinase (conclusion in words) (hexokinase; buffer): at least partly inhibited
RLU 5 min. (hexokinase; hexokinase 0.14 U/ml, buffer): 25884 RLU
RLU 10 min. (hexokinase; hexokinase 0.14 U/ml, buffer): 23717 RLU
RLU 15 min. (hexokinase; hexokinase 0.14 U/ml, buffer): 24771 RLU
RLU 5 min. (hexokinase; hexokinase 0.14 U, in SRA): 15397 RLU
RLU 10 min. (hexokinase; hexokinase 0.14 U, in SRA): 15221 RLU
RLU 5 min. (hexokinase; hexokinase 0.28 U/ml, buffer): 19116 RLU
RLU 10 min. (hexokinase; hexokinase 0.28 U/ml, buffer): 18228 RLU
RLU 15 min. (hexokinase; hexokinase 0.28 U/ml, buffer): 16919 RLU
RLU 5 min. (hexokinase; hexokinase 0.28 U, in SRA): 11674 RLU
RLU 10 min. (hexokinase; hexokinase 0.28 U, in SRA): 12473 RLU
RLU 5 min. (hexokinase; hexokinase 0.70 U/ml, buffer): 13353 RLU
RLU 10 min. (hexokinase; hexokinase 0.70 U/ml, buffer): 11760 RLU
RLU 15 min. (hexokinase; hexokinase 0.70 U/ml, buffer): 9375 RLU
RLU 5 min. (hexokinase; hexokinase 0.70 U, in SRA): 4212 RLU
RLU 10 min. (hexokinase; hexokinase 0.70 U, in SRA): 3011 RLU
inhibition of hexokinase (conclusion in words) (hexokinase; in the presence of SRA): sufficiently inhibited

RLU after 0 min [3]: 64594 RLU
RLU after 2.5 min. [3]: 3272 RLU
RLU after 5 min [3]: 1130 RLU
RLU after 20 min [3]: 243 RLU
Compound: apyrase
